US20260265238A1, “COMPOUNDS AND PHARMACEUTICAL COMPOSITIONS THAT DEGRADE SWI/SNF-RELATED MATRIX-ASSOCIATED ACTIN-DEPENDENT REGULATOR OF CHROMATIN SUBFAMILY A” (Plexium, Inc., priority 2023, published 2026)

What was measured:
[1] = target: T1, SMARCA4-HiBiT HeLa cells (protein which is expressed from the SMARCA4 gene) (Homo sapiens, UniProt P51532); assay: SMARCA4 degradation assay (HiBiT-fusion HeLa cell line, 24 h, luminescence); assay type: cell-based
T1 construct: protein which is expressed from the SMARCA2 and SMARCA4 genes; host or cells: HeLa (SMARCA4-HiBiT engineered line)
How it was run: (§1)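 HeLa cells carrying HiBiT-tagged SMARCA2 or SMARCA4 were seeded at 8,000 cells/well, allowed to attach overnight at 37° C., then given compounds in a 10-point dilution series (typically 10 μM to 300 pM) for 24 hours at 37° C. Remaining tagged protein was read by HiBiT lytic luminescence, and DC50s came from dose-response curves.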

[2] = target: T2, SMARCA2-HiBiT HeLa cells (protein which is expressed from the SMARCA2 gene) (Homo sapiens, UniProt P51531); assay: SMARCA2 degradation assay (HiBiT-fusion HeLa cell line, 24 h, luminescence); assay type: cell-based
T2 construct: protein which is expressed from the SMARCA2 and SMARCA4 genes; host or cells: HeLa (SMARCA2-HiBiT engineered line)
How it was run: as §1

T2 sequence (P51531 whole entry, the tested form may be a part): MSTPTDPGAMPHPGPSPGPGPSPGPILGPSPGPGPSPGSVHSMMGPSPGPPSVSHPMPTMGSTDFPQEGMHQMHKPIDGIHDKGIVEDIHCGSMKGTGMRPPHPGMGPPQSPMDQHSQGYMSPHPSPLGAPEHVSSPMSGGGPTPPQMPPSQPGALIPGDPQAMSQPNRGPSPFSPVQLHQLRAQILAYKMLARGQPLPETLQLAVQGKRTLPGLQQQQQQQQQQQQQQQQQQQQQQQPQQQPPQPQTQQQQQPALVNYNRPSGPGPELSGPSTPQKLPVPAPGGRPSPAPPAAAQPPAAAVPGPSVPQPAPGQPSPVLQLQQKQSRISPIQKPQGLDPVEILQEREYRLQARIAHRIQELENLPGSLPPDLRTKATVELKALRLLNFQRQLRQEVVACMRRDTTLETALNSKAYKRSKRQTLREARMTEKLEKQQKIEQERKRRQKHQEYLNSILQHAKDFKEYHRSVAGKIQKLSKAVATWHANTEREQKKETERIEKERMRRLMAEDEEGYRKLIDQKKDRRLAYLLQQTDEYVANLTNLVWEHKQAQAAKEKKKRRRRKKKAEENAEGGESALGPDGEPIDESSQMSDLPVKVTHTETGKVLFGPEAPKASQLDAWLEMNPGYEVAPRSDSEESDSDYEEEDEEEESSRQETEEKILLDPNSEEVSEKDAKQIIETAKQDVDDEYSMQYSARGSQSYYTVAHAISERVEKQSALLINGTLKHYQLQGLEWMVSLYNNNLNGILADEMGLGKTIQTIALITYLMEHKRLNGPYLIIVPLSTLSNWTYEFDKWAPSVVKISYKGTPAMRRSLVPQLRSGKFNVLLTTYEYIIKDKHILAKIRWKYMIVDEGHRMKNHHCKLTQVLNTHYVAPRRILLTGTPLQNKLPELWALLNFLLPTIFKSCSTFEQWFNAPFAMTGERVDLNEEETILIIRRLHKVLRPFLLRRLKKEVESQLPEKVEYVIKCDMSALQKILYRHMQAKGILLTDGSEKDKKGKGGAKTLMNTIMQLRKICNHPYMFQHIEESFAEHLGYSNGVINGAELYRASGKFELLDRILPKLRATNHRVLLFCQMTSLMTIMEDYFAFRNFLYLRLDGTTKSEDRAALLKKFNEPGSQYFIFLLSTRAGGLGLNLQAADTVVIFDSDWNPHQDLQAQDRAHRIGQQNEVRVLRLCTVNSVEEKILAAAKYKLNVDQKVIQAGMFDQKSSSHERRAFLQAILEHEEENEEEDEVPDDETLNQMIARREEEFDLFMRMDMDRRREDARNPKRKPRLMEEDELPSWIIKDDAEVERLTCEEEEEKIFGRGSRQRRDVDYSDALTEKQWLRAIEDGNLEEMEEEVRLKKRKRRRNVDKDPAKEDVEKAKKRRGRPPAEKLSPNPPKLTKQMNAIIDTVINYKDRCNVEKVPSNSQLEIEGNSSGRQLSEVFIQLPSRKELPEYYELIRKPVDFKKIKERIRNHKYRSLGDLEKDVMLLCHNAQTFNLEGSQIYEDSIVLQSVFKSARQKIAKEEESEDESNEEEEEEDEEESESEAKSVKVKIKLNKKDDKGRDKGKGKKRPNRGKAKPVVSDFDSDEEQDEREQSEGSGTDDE
T1 sequence (P51532 whole entry, the tested form may be a part): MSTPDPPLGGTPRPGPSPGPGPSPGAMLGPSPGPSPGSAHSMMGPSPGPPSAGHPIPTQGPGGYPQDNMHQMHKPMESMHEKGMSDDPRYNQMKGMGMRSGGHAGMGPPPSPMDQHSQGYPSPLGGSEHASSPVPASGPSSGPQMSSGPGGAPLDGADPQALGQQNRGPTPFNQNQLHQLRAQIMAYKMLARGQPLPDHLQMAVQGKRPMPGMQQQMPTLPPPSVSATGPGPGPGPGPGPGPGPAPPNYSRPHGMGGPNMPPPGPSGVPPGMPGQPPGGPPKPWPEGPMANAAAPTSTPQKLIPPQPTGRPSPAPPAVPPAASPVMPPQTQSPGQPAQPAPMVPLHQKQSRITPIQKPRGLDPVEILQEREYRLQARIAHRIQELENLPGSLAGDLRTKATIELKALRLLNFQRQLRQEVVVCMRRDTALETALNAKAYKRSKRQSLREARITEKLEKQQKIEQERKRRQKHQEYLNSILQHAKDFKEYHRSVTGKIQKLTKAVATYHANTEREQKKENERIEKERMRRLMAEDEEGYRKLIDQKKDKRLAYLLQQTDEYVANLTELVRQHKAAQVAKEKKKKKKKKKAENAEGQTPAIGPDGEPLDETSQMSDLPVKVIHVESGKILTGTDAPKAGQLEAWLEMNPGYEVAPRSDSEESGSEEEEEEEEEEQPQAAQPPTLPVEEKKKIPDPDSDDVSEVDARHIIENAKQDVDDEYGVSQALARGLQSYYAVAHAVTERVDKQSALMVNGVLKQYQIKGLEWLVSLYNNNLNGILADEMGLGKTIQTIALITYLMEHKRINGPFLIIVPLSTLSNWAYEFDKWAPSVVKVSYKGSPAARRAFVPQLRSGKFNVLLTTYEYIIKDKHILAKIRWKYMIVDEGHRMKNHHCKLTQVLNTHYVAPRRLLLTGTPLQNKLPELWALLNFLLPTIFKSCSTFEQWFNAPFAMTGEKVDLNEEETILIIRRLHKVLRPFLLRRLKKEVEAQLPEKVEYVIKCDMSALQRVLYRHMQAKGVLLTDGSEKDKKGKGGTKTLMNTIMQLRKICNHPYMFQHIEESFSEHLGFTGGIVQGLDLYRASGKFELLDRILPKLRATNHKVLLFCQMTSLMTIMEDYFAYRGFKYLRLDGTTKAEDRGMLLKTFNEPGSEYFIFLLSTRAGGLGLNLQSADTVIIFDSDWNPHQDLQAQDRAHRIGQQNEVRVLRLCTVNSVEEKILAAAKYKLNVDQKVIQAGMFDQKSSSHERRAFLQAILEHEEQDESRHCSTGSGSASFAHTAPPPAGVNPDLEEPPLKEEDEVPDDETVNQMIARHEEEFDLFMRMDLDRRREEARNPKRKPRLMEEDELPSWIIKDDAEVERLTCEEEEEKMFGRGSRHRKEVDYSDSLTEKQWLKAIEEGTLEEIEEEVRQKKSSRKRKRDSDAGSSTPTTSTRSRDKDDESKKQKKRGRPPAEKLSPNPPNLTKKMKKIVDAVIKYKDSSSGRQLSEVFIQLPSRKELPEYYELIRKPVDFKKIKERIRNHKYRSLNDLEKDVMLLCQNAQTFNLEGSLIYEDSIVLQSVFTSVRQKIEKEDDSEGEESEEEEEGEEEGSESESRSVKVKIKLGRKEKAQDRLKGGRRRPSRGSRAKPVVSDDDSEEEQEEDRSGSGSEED

C[C@@H]1CCN(c2cc(-c3ccccc3O)nnc2N)CCN1c1ccnc(C#CCN(C)CC(F)F)n1 [Compound P-155, o-{5-[(R)-4-(2-{3-[(2,2-difluoroethyl)-N-methylamino]-1-propynyl}-4-pyrimidinyl)-5-methyl-1,4-diazepan-1-yl]-6-amino-3-pyridazinyl}phenol] showed a DC50 [1] of 0.05 to 0.5 µM, an inhibition at 1 µM ([1]; @ 1 μM) of 30 to 70% and a DC50 [2] of 0.05 to 0.5 µM. The “SMARCA2 % Degradation @ 1 μM” value ([2]; @ 1 μM) was “++ (++=30-70%)”.

With Cc1c(C(=O)NCC#Cc2nccc(N3CCN(c4cc(-c5ccccc5O)nnc4N)CC3)n2)nn(C)c1C [Compound P-8, N-[3-(4-{4-[3-amino-6-(2-hydroxyphenyl)pyridazin-4-yl]piperazin-1-yl}pyrimidin-2-yl)prop-2-yn-1-yl]-1,4,5-trimethyl-1H-pyrazole-3-carboxamide] the DC50 [1] was less than 0.05 µM, the inhibition at 1 µM ([1]; @ 1 μM) was 30 to 70% and the DC50 [2] was 0.05 to 0.5 µM. The “SMARCA2 % Degradation @ 1 μM” value ([2]; @ 1 μM) was “++ (++=30-70%)”.

In the case of Nc1nnc(-c2ccccc2O)cc1N1CC2CC1CN(c1ccnc(C#CCNC(=O)c3cc4ncccn4n3)n1)C2 (centres unmarked) [Compound P-17, N-(3-(4-(6-(3-amino-6-(2-hydroxyphenyl)pyridazin-4-yl)-3,6-diazabicyclo[3.2.1]octan-3-yl)pyrimidin-2-yl)prop-2-yn-1-yl)pyrazolo[1,5-a]pyrimidine-2-carboxamide], the DC50 [1] was 0.5 to 5 µM, the inhibition at 1 µM ([1]; @ 1 μM) was 30 to 70% and the DC50 [2] was 0.5 to 5 µM. For the same compound, the “SMARCA2 % Degradation @ 1 μM” value ([2]; @ 1 μM) was “++ (++=30-70%)”.

For C[C@@H]1CCN(c2cc(-c3ccccc3O)nnc2N)CCN1c1ccnc(C#CCNC(=O)c2cc3ncccn3n2)n1 [Compound P-14, (R)-N-(3-(4-(4-(3-amino-6-(2-hydroxyphenyl)pyridazin-4-yl)-7-methyl-1,4-diazepan-1-yl)pyrimidin-2-yl)prop-2-yn-1-yl)pyrazolo[1,5-a]pyrimidine-2-carboxamide], the DC50 [1] was 0.05 to 0.5 µM, the inhibition at 1 µM ([1]; @ 1 μM) was 30 to 70% and the DC50 [2] was 0.05 to 0.5 µM. For the same compound, the “SMARCA2 % Degradation @ 1 μM” value ([2]; @ 1 μM) was “+++ (+++=>70%)”.

In the case of C[C@@H]1CCN(c2cc(-c3ccccc3O)nnc2N)CCN1c1ccnc(C#CC2CC2)c1 [Compound P-391, 0-(5-{(R)-4-[2-(2-cyclopropylethynyl)-4-pyridyl]-5-methyl-1,4-diazepan-1-yl}-6-amino-3-pyridazinyl)phenol], the DC50 [1] was 0.05 to 0.5 µM, the DC50 [2] was 0.05 to 0.5 µM and the “SMARCA2 % Degradation @ 1 μM” value ([2]; 1 μM) was “++ (++=30-70%)”.

CCOc1cc(N2CCCN(c3cc(-c4ccccc4O)nnc3N)CC2)nc(C#CCNC(=O)c2cc3ncccn3n2)n1 [Compound P-124, N-(3-(4-(4-(3-amino-6-(2-hydroxyphenyl)pyridazin-4-yl)-1,4-diazepan-1-yl)-6-ethoxypyrimidin-2-yl)prop-2-yn-1-yl)pyrazolo[1,5-a]pyrimidine-2-carboxamide] showed a DC50 [1] of 0.05 to 0.5 µM, an inhibition at 1 µM ([1]; @ 1 μM) greater than 70% and a DC50 [2] of 0.05 to 0.5 µM. For the same compound, the “SMARCA2 % Degradation @ 1 μM” value ([2]; @ 1 μM) was “++ (++=30-70%)”.

In the case of Cc1c(C(=O)NC/C=C/c2nccc(N3CCCN(c4cc(-c5ccccc5O)nnc4N)CC3)n2)nn(C)c1C [Compound P-111, (E)-N-(3-(4-(4-(3-amino-6-(2-hydroxyphenyl)pyridazin-4-yl)-1,4-diazepan-1-yl)pyrimidin-2-yl)allyl)-1,4,5-trimethyl-1H-pyrazole-3-carboxamide], the DC50 [1] was 0.05 to 0.5 µM, the inhibition at 1 µM ([1]; @ 1 μM) was 30 to 70% and the DC50 [2] was 0.05 to 0.5 µM. The “SMARCA2 % Degradation @ 1 μM” value ([2]; @ 1 μM) was “+++ (+++=>70%)”.

Compound C[C@@H]1CCN(c2cc(-c3ccccc3O)nnc2N)CCN1c1ccnc(C#CCN2CCOCC2)n1 [Compound P-334, 0-(5-{(R)-5-methyl-4-[2-(3-morpholino-1-propynyl)-4-pyrimidinyl]-1,4-diazepan-1-yl}-6-amino-3-pyridazinyl)phenol] has a DC50 [1] of 0.05 to 0.5 µM, an inhibition at 1 µM ([1]; @ 1 μM) of less than 30% and a DC50 [2] of 0.05 to 0.5 µM. The “SMARCA2 % Degradation @ 1 μM” value ([2]; @ 1 μM) was “++ (++=30-70%)”.

Work on Nc1nnc(-c2ccccc2O)cc1N1CCCC2(CCN(c3ccnc(C#CCNC(=O)c4cc5ncccn5n4)n3)CC2)C1 [Compound P-33, N-(3-(4-(2-(3-amino-6-(2-hydroxyphenyl)pyridazin-4-yl)-2,9-diazaspiro[5.5]undecan-9-yl)pyrimidin-2-yl)prop-2-yn-1-yl)pyrazolo[1,5-a]pyrimidine-2-carboxamide] yielded a DC50 [1] of 0.05 to 0.5 µM, an inhibition at 1 µM ([1]; @ 1 μM) of 30 to 70% and a DC50 [2] of 0.05 to 0.5 µM. For the same compound, the “SMARCA2 % Degradation @ 1 μM” value ([2]; @ 1 μM) was “++ (++=30-70%)”.

Nc1nnc(-c2ccccc2O)cc1N1CCN(c2ccnc(C#CCNC(=O)c3cnc4ccccn34)n2)CC1 [Compound P-66, N-(3-(4-(4-(3-amino-6-(2-hydroxyphenyl)pyridazin-4-yl)piperazin-1-yl)pyrimidin-2-yl)prop-2-yn-1-yl)imidazo[1,2-a]pyridine-3-carboxamide] showed a DC50 [1] of 0.05 to 0.5 µM, an inhibition at 1 µM ([1]; @ 1 μM) of 30 to 70% and a DC50 [2] of 0.05 to 0.5 µM. The “SMARCA2 % Degradation @ 1 μM” value ([2]; @ 1 μM) was “++ (++=30-70%)”.

C[C@@H]1CCN(c2cc(-c3ccccc3O)nnc2N)CCN1c1ccnc(C#CCN2CC(C#N)C2)n1 [Compound P-215, 1-[3-(4-{ (R)-4-[3-amino-6-(o-hydroxyphenyl)-4-pyridazinyl]-7-methyl-1,4-diazepan-1-yl}-2-pyrimidinyl)-2-propynyl]-3-azetidinecarbonitrile] was tested, and the DC50 [1] was 0.05 to 0.5 µM, the inhibition at 1 µM ([1]; @ 1 μM) was 30 to 70% and the DC50 [2] was 0.05 to 0.5 µM. For the same compound, the “SMARCA2 % Degradation @ 1 μM” value ([2]; @ 1 μM) was “+++ (+++=>70%)”.

CC(=O)NCC#Cc1nccc(N2CCCN(c3cc(-c4ccccc4O)nnc3N)CC2)n1 [Compound P-122, N-(3-(4-(4-(3-amino-6-(2-hydroxyphenyl)pyridazin-4-yl)-1,4-diazepan-1-yl)pyrimidin-2-yl)prop-2-yn-1-yl)acetamide] showed a DC50 [1] of 0.5 to 5 µM, an inhibition at 1 µM ([1]; @ 1 μM) of less than 30% and a DC50 [2] of 0.5 to 5 µM. For the same compound, the “SMARCA2 % Degradation @ 1 μM” value ([2]; @ 1 μM) was “++ (++=30-70%)”.

Work on CN(C)CC#Cc1nccc(N2C[C@@H]3CN(c4cc(-c5ccccc5O)nnc4N)C[C@@H]3C2)n1 [Compound P-181, o-{5-[(1R,5S)-7-{2-[3-(dimethylamino)-1-propynyl]-4-pyrimidinyl}-3,7-diazabicyclo[3.3.0]oct-3-yl]-6-amino-3-pyridazinyl} phenol] yielded a DC50 [1] of less than 0.05 µM, an inhibition at 1 µM ([1]; @ 1 μM) of 30 to 70% and a DC50 [2] of 0.05 to 0.5 µM. The “SMARCA2 % Degradation @ 1 μM” value ([2]; @ 1 μM) was “++ (++=30-70%)”.

Cc1nn2ccn(CC#Cc3nccc(N4CC5CCC(C4)N5c4cc(-c5ccccc5O)nnc4N)n3)c(=O)c2c1C [Compound P-282, 5-[3-(4-{8-[3-amino-6-(o-hydroxyphenyl)-4-pyridaziny1]-3,8-diazabicyclo[3.2.1]oct-3-yl}-2-pyrimidinyl)-2-propynyl]-2,3-dimethyl-1,5,7a-triaza-4(5H)-indenone] gave a DC50 [1] of 0.05 to 0.5 µM, an inhibition at 1 µM ([1]; @ 1 μM) of 30 to 70% and a DC50 [2] of 0.05 to 0.5 µM. For the same compound, the “SMARCA2 % Degradation @ 1 μM” value ([2]; @ 1 μM) was “++ (++=30-70%)”.

In the case of Nc1nnc(-c2ccccc2O)cc1N1CC2CCC(C1)N2c1ccnc(C#CCCCNC(=O)c2cc3ncccn3n2)n1 [Compound P-99, N-(5-(4-(3-(3-amino-6-(2-hydroxyphenyl)pyridazin-4-yl)-3,8-diazabicyclo[3.2.1]octan-8-yl)pyrimidin-2-yl)pent-4-yn-1-yl)pyrazolo[1,5-a]pyrimidine-2-carboxamide], the DC50 [1] was 0.5 to 5 µM, the inhibition at 1 µM ([1]; @ 1 μM) was less than 30% and the DC50 [2] was 0.5 to 5 µM. The “SMARCA2 % Degradation @ 1 μM” value ([2]; @ 1 μM) was “+ (+=<30%)”.

C[C@@H]1CCN(c2cc(-c3ccccc3O)nnc2N)CCN1c1nc(C#CCN2C(=O)CC[C@@H]2C)ncc1F [Compound P-176, (S)-1-[3-(4-{(R)-4-[3-amino-6-(o-hydroxyphenyl)-4-pyridazinyl]-7-methyl-1,4-diazepan-1-yl}-5-fluoro-2-pyrimidinyl)-2-propynyl]-5-methyl-2-pyrrolidinone] showed a DC50 [1] of 0.05 to 0.5 µM, an inhibition at 1 µM ([1]; @ 1 μM) of 30 to 70% and a DC50 [2] of 0.05 to 0.5 µM. The “SMARCA2 % Degradation @ 1 μM” value ([2]; @ 1 μM) was “++ (++=30-70%)”.

For Nc1nnc(-c2ccccc2O)cc1N1CCCN(c2ccnc(C#CCn3ccnn3)n2)CC1 [Compound P-144, 2-(5-(4-(2-(3-(1H-1,2,3-triazol-1-yl)prop-1-yn-1-yl)pyrimidin-4-yl)-1,4-diazepan-1-yl)-6-aminopyridazin-3-yl)phenol], the DC50 [1] was 0.05 to 0.5 µM, the inhibition at 1 µM ([1]; @ 1 μM) was 30 to 70% and the DC50 [2] was 0.05 to 0.5 µM. The “SMARCA2 % Degradation @ 1 μM” value ([2]; @ 1 μM) was “+++ (+++=>70%)”.

For Nc1nnc(-c2ccccc2O)cc1N1C2CC1CN(c1ccnc(C#CCNC(=O)c3cc4ncccn4n3)n1)C2 [Compound P-80, N-(3-(4-(6-(3-amino-6-(2-hydroxyphenyl)pyridazin-4-yl)-3,6-diazabicyclo[3.1.1]heptan-3-yl)pyrimidin-2-yl)prop-2-yn-1-yl)pyrazolo[1,5-a]pyrimidine-2-carboxamide], the DC50 [1] was greater than 5 µM, the inhibition at 1 µM ([1]; @ 1 μM) was less than 30% and the DC50 [2] was 0.5 to 5 µM. For the same compound, the “SMARCA2 % Degradation @ 1 μM” value ([2]; @ 1 μM) was “+ (+=<30%)”.

C[C@@H]1CCN(c2cc(-c3ccccc3O)nnc2N)CCN1c1ccnc(C#CCN2CC3CCC2CO3)n1 (stereo partly drawn) [Compound P-178, o-{5-[(R)-5-methyl-4-(2-{3-(2-oxa-5-azabicyclo[2.2.2]oct-5-yl)-1-propynyl}-4-pyrimidinyl)-1,4-diazepan-1-yl]-6-amino-3-pyridazinyl}phenol] was tested, and the DC50 [1] was 0.05 to 0.5 µM, the inhibition at 1 µM ([1]; @ 1 μM) was 30 to 70% and the DC50 [2] was 0.05 to 0.5 µM. For the same compound, the “SMARCA2 % Degradation @ 1 μM” value ([2]; @ 1 μM) was “+++ (+++=>70%)”.

In the case of Nc1nnc(-c2ccccc2O)cc1N1CCCN(c2ccnc(C#CCCNC(=O)c3cc4ncccn4n3)n2)CC1 [Compound P-23, N-(4-(4-(4-(3-amino-6-(2-hydroxyphenyl)pyridazin-4-yl)-1,4-diazepan-1-yl)pyrimidin-2-yl)but-3-yn-1-yl)pyrazolo[1,5-a]pyrimidine-2-carboxamide], the DC50 [1] was 0.05 to 0.5 µM, the inhibition at 1 µM ([1]; @ 1 μM) was 30 to 70% and the DC50 [2] was 0.05 to 0.5 µM. For the same compound, the “SMARCA2 % Degradation @ 1 μM” value ([2]; @ 1 μM) was “++ (++=30-70%)”.

C[C@@H]1CCN(c2cc(-c3ccccc3O)nnc2N)CCN1c1ccnc(C#CCn2cncn2)c1 [Compound P-424, 0-{5-[(R)-5-methyl-4-{2-[3-(1H-1,2,4-triazol-1-yl)-1-propynyl]-4-pyridyl}-1,4-diazepan-1-yl]-6-amino-3-pyridaziny1} phenol] was tested, and the DC50 [1] was 0.05 to 0.5 µM, the inhibition at 1 µM ([1]; 1 μM) was 30 to 70% and the DC50 [2] was 0.05 to 0.5 µM. The “SMARCA2 % Degradation @ 1 μM” value ([2]; 1 μM) was “+++ (+++=>70%)”.
